In the NIST ThermoML archive (doi:10.1021/je900048r):

Assay: xn = mol fraction of the nth substance listed
Details: Liquid, Other PVT measurement

CCCCn1cc[n+](C)c1.F[B-](F)(F)F [1-butyl-3-methylimidazolium tetrafluoroborate] + c1ccccc1
mass density [kg/m3]
Details | x1 = 0.5 | x1 = 0.5999 | x1 = 0.7001 | x1 = 0.8 | x1 = 0.8999 | x1 = 1
313.15 K, 200 kPa | 1111 | 1129 | 1145 | 1158 | 1172 | 1185
313.15 K, 600 kPa | 1111 | 1130 | 1145 | 1158 | 1172 | 1186
313.15 K, 1000 kPa | 1111 | 1130 | 1146 | 1158 | 1173 | 1186
313.15 K, 1400 kPa | 1111 | 1131 | 1146 | 1159 | 1173 | 1186
313.15 K, 1800 kPa | 1111 | 1131 | 1147 | 1159 | 1173 | 1187
313.15 K, 2000 kPa | 1111 | 1132 | 1147 | 1159 | 1173 | 1187
353.15 K, 200 kPa | 1082 | 1102 | 1118 | 1131 | 1145 | 1159
353.15 K, 600 kPa | 1082 | 1103 | 1118 | 1131 | 1145 | 1160
353.15 K, 1000 kPa | 1083 | 1103 | 1118 | 1131 | 1145 | 1160
353.15 K, 1400 kPa | 1083 | 1103 | 1118 | 1132 | 1146 | 1160
353.15 K, 1800 kPa | 1084 | 1104 | 1119 | 1132 | 1146 | 1161
353.15 K, 2000 kPa | 1084 | 1104 | 1119 | 1132 | 1146 | 1161
393.15 K, 600 kPa | 1055 | 1076 | 1092 | 1106 | 1120 | 1135
393.15 K, 1000 kPa | 1055 | 1076 | 1092 | 1106 | 1120 | 1135
393.15 K, 1400 kPa | 1055 | 1077 | 1092 | 1106 | 1120 | 1135
393.15 K, 1800 kPa | 1056 | 1077 | 1092 | 1106 | 1121 | 1136
393.15 K, 2000 kPa | 1056 | 1078 | 1093 | 1106 | 1121 | 1136
433.15 K, 1400 kPa | 1028 | 1050 | 1066 | 1080 | 1096 | 1112
433.15 K, 1800 kPa | 1029 | 1050 | 1067 | 1081 | 1096 | 1113
433.15 K, 2000 kPa | 1029 | 1051 | 1067 | 1081 | 1096 | 1113
